In patent publication US4863748A, “Dietary products and uses comprising methylsulfonylmethane” (priority 1986, dated 1989):
Like-named read-outs stand apart in the source and are kept apart here.

Assays:
[1] = Tolerance and toxicity on ingestion; type: in vivo, animals; details: for NOAEL: in vivo, po
Text: The methylsulfonylmethane is usually provided in the aninmal's normal feed rations, periodically throughout the day or on successive days, or both, e.g., for 2 to 21 days or even longer. The daily food ration appropriate for the animal being fed is supplemented with an amount of methylsulfonylmethane calculated to correspond to a predetermined amount per total body weight of the animals being fed. The exact amount of methylsulfonylmethane ingested each day is not always critical, particularly when methylsulfonylmethane administration is over an extended period of days, because the ingested methylsulfonylmethane accumulates in the body tissues and fluids, i.e., reaches an effective titer. Methylsulfonylmethane-supplemented rations providing levels of as low as 0.5-1 mg/kg animal body weight are sometimes effective and levels as high as 300 mg/kg body weight or more are well tolerated. The usual target level per individual animal is about 0.2-2.0 mg/kg body weight preferably 0.5-1.0 mg per kg body weight. Total daily supplements corresponding to up to about 1 gm/kg body weight or more, are preferably employed, depending on the degree of deficiency. Healthy animals often have methylsulfonylmethane blood levels of at least 1 ppm, and desirably, enough methylsulfonylmethane is provided to raise blood levels to above 1 ppm. The oral ingestion of amounts of methylsulfonylmethane in excess of that required to elevate blood levels is not harmful because of the extremely non-toxic nature of methylsulfonylmethane.
One can safely administer 1-2 grams/kg body wt. of methylsulfonylmethane on a daily basis (equal to 1000-2000 ppm w/w basis). One therefore builds a safely tolerated blood level of about 4000 ppm, which level is highly toxic to many infective organism yet is harmless to the host. Methylsulfonylmethane provides a unique new therapeutic approach, used alone or with concurrent, conventional therapy.

mucous membranes = test: Binding of labeled 35-S dimethyl sulfone to mucous membranes by autoradiography; details: 35-S labeled
Text: 1. Reducing the adverse response to inhalant allergens. This action may be due entirely or in part to a physical blocking action. Labeled 35-S dimethyl sulfone binds tightly to the surface of mucous membranes and by autoradiography, the membranes appears to be coated, as with a paint.

[2] = test system: pruritis, acne, acne rosacea; test: Connective tissue and dermatological disorders (Example 13); type: in vivo, human
Text: Teenagers found methylsulfonylmethane in cola drinks a particularly acceptable satisfactory combination when treating acne. With rosacea, visual improvement was much slower.

eye = test: Inflammation of the eye following accidental injury (Example 14); type: in vivo, human; details: 15% solution in isotonic saline
Text: A 15% solution of methylsulfonylmethane in isotonic saline was a soothing treatment for the eye following accidental injury due to particulate matter in the eye as dust or pollen.

[3] = test system: physical fatigue syndrome; test: Post-athletic activity fatigue (Example 25); type: in vivo, human; details: 1-2 gm/day, preceding six months; usually 8-10 days
Text: The physical fatigue syndrome following intense athletic activity in competitive sports which usually persists for 8-10 days in athletes was gone in 2-3 days in individuals who had ingested methylsulfonylmethane (from 1-2 gm/day in split dosages) for the preceding six months.

Trichomonas vaginalis = test: In vitro culture of Trichomonas vaginalis (Example 28(a)); type: cell-based, Trichomonas vaginalis Strain ATCC No. 30001
Protocol: Methylsulfonylmethane has highly variable toxicities for various nematodes. Based on this discovery, tests were conducted on several parasites adverse to the health of vertebrates
Strain ATCC No. 30001 was cultured in vitro employing diamonds tym medium. Methylsulfonylmethane was added thereto at levels varying from 5.5 to 109.3 mg/ml. At concentrations of 5.5 to 10.9 mg/ml, the methylsulfonylmethane had no effect on this protozoan.

[4] = test system: myositis ossificans generalis; test: Myositis ossificans generalis (Example 35); type: in vivo, human; details: one teaspoon orally in split daily doses, nearly two years
Text: Their family belongs to a group of families each with a family member suffering from the disease. They have been on one teaspoon of methylsulfonylmethane orally, in split daily doses for nearly two years. […] No other child in the group is on methylsulfonylmethane and all are deteriorating physically. The disease cause is unknown but probably is a genetic/autoimmune type of disorder.

[5] = test system: spontaneous mouse lymphomas; test: Spontaneous mouse lymphomas, survival (Example 37); type: in vivo, laboratory mice; details: 3% by wt. in water; all 12 controls dead by month 4
Protocol: Laboratory mice genetically predisposed to lymphoma development were selected for this test. Humoral immunity participation was measured as was the effect of methylsulfonylmethane on an animal's life span. One set of 12 mice were maintained as controls. The treated (T) group received identical treatment except for their water given ad lib, which contained 3% by wt. of methylsulfonylmethane in solution.
By month 4 of this test, all controls were dead, due to lymphoma development. […] These normal balb/c strain mice of group T were tested for t-lymphocyte dependent (t-d) and t-lymphocyte independent (t-i) immune responses. […] Based on these preliminary results, at high enough daily rates of ingestion, methylsulfonylmethane stimulates humoral immunity thereby providing protection to otherwise lethal spontaneous mouse lymphomas.

skin = test: Effect on skin tissue; details: in vivo
Text: Studies to date indicate that it is desirable that animals ingest about 0.5-1.0 milligram/kg body weight/day of methylsulfonylmethane to maintain optimum good health. However, any lower level will serve some benefit. Higher levels are either stored in the body as a sulfur reserve, provide a sufficient concentration to optimize synthesis of the multitude of required sulfur containing biomolecules, or simply are excreted as by the renal pathway or through the skin.

anticholinesterases = details: in vivo; cited from earlier work
[6] = cited from earlier work

In the case of CS(C)(=O)=O [methylsulfonylmethane], the “acute and chronic toxicity” value ([1]; in the host's diet) is reported as “remarkably low”, the NOAEL ([1]; daily basis, read-out: safely administered daily dose) is reported as 1000 to 2000 mg/kg/day and the NOAEL ([1]; supplemented rations, or more, read-out: well tolerated level in rations) is reported as ≥ 300 mg/kg. For the same compound, the “toxicity at high (greater than 1 gm/kg body wt.) blood levels” value ([1]; primates, at least two years) was “lack evidence of methylsulfonylmethane toxicity”, the “binding to the surface of mucous membranes” value (mucous membranes) was “binds tightly” and the “response of pruritis and acne” value ([2]; about 100-1000 mg per day) was “respond promptly”. For the same compound, the “response of dermatological problems” value ([2]; diet supplemented) was “respond favorably”, the “visual improvement with rosacea” value ([2]; in vivo) was “much slower” and the “time before telangiectasis diminished” value ([2]; subject three, 500 mg daily) was “at least several weeks”. The “effect on the eye following accidental injury” value (eye) was “soothing”, the “duration of physical fatigue syndrome” value [3] was 2 to 3 days and the lethal concentrations (Trichomonas vaginalis; all higher concentrations tested, to 109.3 mg/ml) was > 21.9 mg/mL. The “activity relative to metronidazole HCL” value (Trichomonas vaginalis; in vitro, based on this assay) was “about half”, the “concentration with no effect on this protozoan” value (Trichomonas vaginalis; in vitro, diamonds tym medium) was 5.5 to 10.9 mg/mL and the “condition of the patient” value [4] was “out of their wheelchair and is improving”. For the same compound, the disease process ([4]; child A. Z.) was “stopped”, the “deaths by month 5” value [5] was “No T group mice had died” and the “pliability and softness of the skin” value (skin) was “improving”. The “lethal effects of anticholinesterases such as paraoxon, tetraethyl pyrophosphate and octamethyl pyrophosphoramide” value (anticholinesterases) was “antagonizes”, the motor activity ([6]; i.p.) was “reduces” and the body temperature ([6]; rats exposed to 5° C.) was “lowers”.
